Test results from patent publication US9708314B2, “Heterocyclic amide compound” (NISSAN CHEMICAL INDUSTRIES, LTD., priority 2013, dated 2017).

What was measured:
Format in all cases: in vivo
Cyperus difformis = experiment: Test Example 3: herbicidal effect by application to foliage (Wagner pot, water depth 0.1-0.5 cm); conditions: Nineteenth Table; application to foliage; application herbicide amount 320 g/ha
Outline: (§1)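 Seeds were sown in alluvial soil in Wagner pots, grown for 14 days at 25–30 °C, then sprayed uniformly on foliage with the emulsified compound diluted to a given rate per hectare. Injury was graded three weeks after treatment from 0 (≤5%) to 5 (≥90%).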

Leptochloa chinensis = experiment: as above; conditions: Nineteenth Table; application to foliage; application herbicide amount 320 g/ha
Outline: as §1

[1] = test system: Echinochloa crus-galli var. crus-galli; experiment: as above; conditions: Nineteenth Table; application to foliage; application herbicide amount 320 g/ha
Outline: as §1

[2] = test system: Echinochloa oryzacola Vasing.; experiment: Test Example 2: herbicidal activity, application during weed generation in submerged conditions; conditions: Eighteenth Table; application herbicide amount 320 g/ha
Outline: (§2)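 Scored three weeks post-application on a 0–5 scale (5: ≥90% herbicidal ratio, almost withered; 0: ≤5%). Plants raised from mixed-sown seed in submerged alluvial soil (4 cm water), 25–30 °C greenhouse; water-diluted emulsion applied onto water surface at one- to two-leaf stage, dose in g/ha.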

Monochoria vaginalis = experiment: as above; conditions: Eighteenth Table; application herbicide amount 320 g/ha
Outline: as §2

Scirpus juncoides = experiment: as above; conditions: Eighteenth Table; application herbicide amount 320 g/ha
Outline: as §2

[3] = test system: directly sowed Oryza sativa; experiment: Test Example 3: effect on crop by application to foliage (Wagner pot, water depth 0.1-0.5 cm); conditions: Nineteenth Table; application to foliage; application herbicide amount 320 g/ha
Outline: as §1

Zea mays = experiment: Test Example 4: effect on crop by application to foliage (diluvial soil, plastic box); conditions: Application herbicide amount 320 g/ha; effect on crop
Outline: (§3)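 Seeds sown in sterilized diluvial soil, covered ~1.5 cm, grown 14 days in greenhouse at 25° C. to 30° C. Emulsion formulation diluted in water to set rate (g/ha) and sprayed onto stems and leaves. Effect scored visually 3 weeks later on 0–5 scale (5 = ≥90% herbicidal ratio, 0 = ≤5%).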

Triticum aestivum = experiment: as above; conditions: Application herbicide amount 320 g/ha; effect on crop
Outline: as §3

Row | Compound | E (herbicidal effect grade) (Cyperus difformis) | D (herbicidal effect grade) (Leptochloa chinensis) | H (herbicidal effect grade) [1] | A (Echinochloa oryzicola Vasing.) herbicidal ratio grade [2] | C (Monochoria vaginalis) herbicidal ratio grade (Monochoria vaginalis) | B (Scirpus juncoides) herbicidal ratio grade (Scirpus juncoides) | b (effect on crop grade) [3] | b (Zea mays) | e (Triticum aestivum)
1 | Cc1nnc(NC(=O)c2ccc(C(F)(F)F)n3c(-c4ccc(Cl)nc4)nnc23)o1 [1-054] | 5 (Herbicidal ratio of 90% or more (almost completely withered)) | 5 (Herbicidal ratio of 90% or more (almost completely withered)) | 5 (Herbicidal ratio of 90% or more (almost completely withered)) | 4 (Herbicidal ratio of 70% or more and less than 90%) | 3 (Herbicidal ratio of 40% or more and less than 70%) | 3 (Herbicidal ratio of 40% or more and less than 70%) | 3 (Herbicidal ratio of 40% or more and less than 70%) | 0 (Herbicidal ratio of 5% or less (almost no effect)) | 3 (Herbicidal ratio of 40% or more and less than 70%)
2 | Cc1nnc(NC(=O)c2ccc(C(F)(F)F)n3c(-c4cccc(Cl)n4)nnc23)o1 [1-055] | 5 (Herbicidal ratio of 90% or more (almost completely withered)) | 4 (Herbicidal ratio of 70% or more and less than 90%) | 5 (Herbicidal ratio of 90% or more (almost completely withered)) | 3 (Herbicidal ratio of 40% or more and less than 70%) | 3 (Herbicidal ratio of 40% or more and less than 70%) | 3 (Herbicidal ratio of 40% or more and less than 70%) | 2 (Herbicidal ratio of 20% or more and less than 40%) | 0 (Herbicidal ratio of 5% or less (almost no effect)) | 1 (Herbicidal ratio of 5% or more and less than 20%)
3 | Cc1cc(-c2nnc3c(C(=O)Nc4nnc(C)o4)ccc(C(F)(F)F)n23)n(C)n1 [1-056] | 5 (Herbicidal ratio of 90% or more (almost completely withered)) | 5 (Herbicidal ratio of 90% or more (almost completely withered)) | 5 (Herbicidal ratio of 90% or more (almost completely withered)) | 5 (Herbicidal ratio of 90% or more (almost completely withered)) | 4 (Herbicidal ratio of 70% or more and less than 90%) | 4 (Herbicidal ratio of 70% or more and less than 90%) | 4 (Herbicidal ratio of 70% or more and less than 90%) | 4 (Herbicidal ratio of 70% or more and less than 90%) | 1 (Herbicidal ratio of 5% or more and less than 20%)
4 | Cc1nnc(NC(=O)c2ccc(C(F)(F)F)n3c(-c4cccs4)nnc23)o1 [1-057] | 5 (Herbicidal ratio of 90% or more (almost completely withered)) | 5 (Herbicidal ratio of 90% or more (almost completely withered)) | 5 (Herbicidal ratio of 90% or more (almost completely withered)) | 2 (Herbicidal ratio of 20% or more and less than 40%) | 3 (Herbicidal ratio of 40% or more and less than 70%) | 3 (Herbicidal ratio of 40% or more and less than 70%) | 3 (Herbicidal ratio of 40% or more and less than 70%) | 0 (Herbicidal ratio of 5% or less (almost no effect)) | 0 (Herbicidal ratio of 5% or less (almost no effect))
5 | Cc1nnc(NC(=O)c2ccc(C(F)(F)F)n3c(-c4cncs4)nnc23)o1 [1-058] | 5 (Herbicidal ratio of 90% or more (almost completely withered)) | 5 (Herbicidal ratio of 90% or more (almost completely withered)) | 5 (Herbicidal ratio of 90% or more (almost completely withered)) | 4 (Herbicidal ratio of 70% or more and less than 90%) | 4 (Herbicidal ratio of 70% or more and less than 90%) | 5 (Herbicidal ratio of 90% or more (almost completely withered)) | 4 (Herbicidal ratio of 70% or more and less than 90%) | 5 (Herbicidal ratio of 90% or more (almost completely withered)) | 1 (Herbicidal ratio of 5% or more and less than 20%)
6 | C#CCSc1nnc2c(C(=O)Nc3nnc(C)o3)ccc(C(F)(F)F)n12 [1-065] | 3 (Herbicidal ratio of 40% or more and less than 70%) | 1 (Herbicidal ratio of 5% or more and less than 20%) | 3 (Herbicidal ratio of 40% or more and less than 70%) | 1 (Herbicidal ratio of 5% or more and less than 20%) | 2 (Herbicidal ratio of 20% or more and less than 40%) | 2 (Herbicidal ratio of 20% or more and less than 40%) | 0 (Herbicidal ratio of 5% or less (almost no effect)) | 0 (Herbicidal ratio of 5% or less (almost no effect)) | 0 (Herbicidal ratio of 5% or less (almost no effect))
7 | Cc1nnc(NC(=O)c2ccc(C(F)(F)C(F)(F)F)n3c(C(C)C)nnc23)o1 [1-066] | 3 (Herbicidal ratio of 40% or more and less than 70%) | 4 (Herbicidal ratio of 70% or more and less than 90%) | 1 (Herbicidal ratio of 5% or more and less than 20%) | 2 (Herbicidal ratio of 20% or more and less than 40%) | 2 (Herbicidal ratio of 20% or more and less than 40%) | 3 (Herbicidal ratio of 40% or more and less than 70%) | 0 (Herbicidal ratio of 5% or less (almost no effect)) | 0 (Herbicidal ratio of 5% or less (almost no effect)) | 0 (Herbicidal ratio of 5% or less (almost no effect))
8 | Cc1nnc(NC(=O)c2ccc(C(F)(F)F)n3c(C=O)nnc23)o1 [1-068] | 5 (Herbicidal ratio of 90% or more (almost completely withered)) | 5 (Herbicidal ratio of 90% or more (almost completely withered)) | 5 (Herbicidal ratio of 90% or more (almost completely withered)) | 2 (Herbicidal ratio of 20% or more and less than 40%) | 2 (Herbicidal ratio of 20% or more and less than 40%) | 2 (Herbicidal ratio of 20% or more and less than 40%) | 1 (Herbicidal ratio of 5% or more and less than 20%) | 2 (Herbicidal ratio of 20% or more and less than 40%) | 1 (Herbicidal ratio of 5% or more and less than 20%)
9 | COc1ccc(Cc2nnc3c(C(=O)Nc4nnc(C)o4)ccc(C(F)(F)F)n23)cc1 [1-069] | 5 (Herbicidal ratio of 90% or more (almost completely withered)) | 5 (Herbicidal ratio of 90% or more (almost completely withered)) | 5 (Herbicidal ratio of 90% or more (almost completely withered)) | 4 (Herbicidal ratio of 70% or more and less than 90%) | 4 (Herbicidal ratio of 70% or more and less than 90%) | 4 (Herbicidal ratio of 70% or more and less than 90%) | 1 (Herbicidal ratio of 5% or more and less than 20%) | 0 (Herbicidal ratio of 5% or less (almost no effect)) | 1 (Herbicidal ratio of 5% or more and less than 20%)
10 | COc1cc(OC)cc(-c2nnc3c(C(=O)Nc4nnc(C)o4)ccc(C(F)(F)F)n23)c1 [1-070] | 5 (Herbicidal ratio of 90% or more (almost completely withered)) | 5 (Herbicidal ratio of 90% or more (almost completely withered)) | 4 (Herbicidal ratio of 70% or more and less than 90%) | 5 (Herbicidal ratio of 90% or more (almost completely withered)) | 5 (Herbicidal ratio of 90% or more (almost completely withered)) | 5 (Herbicidal ratio of 90% or more (almost completely withered)) | 0 (Herbicidal ratio of 5% or less (almost no effect)) | 0 (Herbicidal ratio of 5% or less (almost no effect)) | 0 (Herbicidal ratio of 5% or less (almost no effect))
11 | Cc1nnc(NC(=O)c2ccc(C(F)(F)F)n3c(-c4cc(Cl)cc(Cl)c4)nnc23)o1 [1-071] | 5 (Herbicidal ratio of 90% or more (almost completely withered)) | 3 (Herbicidal ratio of 40% or more and less than 70%) | 0 (Herbicidal ratio of 5% or less (almost no effect)) | 3 (Herbicidal ratio of 40% or more and less than 70%) | 4 (Herbicidal ratio of 70% or more and less than 90%) | 5 (Herbicidal ratio of 90% or more (almost completely withered)) | 0 (Herbicidal ratio of 5% or less (almost no effect)) | 0 (Herbicidal ratio of 5% or less (almost no effect)) | 0 (Herbicidal ratio of 5% or less (almost no effect))
